Experimental data from EP4737450A1 (Longwood Pharmaceuticals (Hangzhou) Co., Ltd, priority 2023, dated 2025).
pIC50: −log10 of the molar value.

What was measured:
plasma kallikrein (PKa) [1] = target: T1, plasma kallikrein (PKa) (Homo sapiens, UniProt P03952); experiment: Inhibitory activity against plasma kallikrein in vitro (fluorescence intensity enzyme assay, Pro-Phe-Arg-AMC substrate); type: biochemical; settings: Pro-Phe-Arg-AMC substrate
T1 construct: purchased R & D 2497-SE
Summary of the method: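 Fluorescence intensity enzyme assay with 10 nM enzyme and 60 µM Pro-Phe-Arg-AMC (final concentrations). Compounds in DMSO, tested in duplicate over a dose series. IC50 from nonlinear regression curve fitting.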

KLK1 = KLK1 (Homo sapiens, UniProt P06870); experiment: Inhibitory activity against KLK1 in vitro (biochemical assay)
Sequence of KLK1 (P06870 25-262, species assumed): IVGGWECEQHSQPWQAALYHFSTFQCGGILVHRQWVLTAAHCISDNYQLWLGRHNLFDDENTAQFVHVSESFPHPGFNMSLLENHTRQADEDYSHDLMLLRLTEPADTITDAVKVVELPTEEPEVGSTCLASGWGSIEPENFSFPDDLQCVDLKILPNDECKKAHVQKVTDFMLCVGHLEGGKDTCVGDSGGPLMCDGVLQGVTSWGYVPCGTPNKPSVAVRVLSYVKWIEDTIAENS
Summary of the method: (§1)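 Compounds were dispensed acoustically from DMSO and tested in duplicate. IC50 values came from nonlinear regression curve fitting.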

FXIa = FXIa (Homo sapiens, UniProt P03951); experiment: Inhibitory activity against FXIa in vitro (biochemical assay)
Sequence of FXIa (P03951 388-625 limits assumed): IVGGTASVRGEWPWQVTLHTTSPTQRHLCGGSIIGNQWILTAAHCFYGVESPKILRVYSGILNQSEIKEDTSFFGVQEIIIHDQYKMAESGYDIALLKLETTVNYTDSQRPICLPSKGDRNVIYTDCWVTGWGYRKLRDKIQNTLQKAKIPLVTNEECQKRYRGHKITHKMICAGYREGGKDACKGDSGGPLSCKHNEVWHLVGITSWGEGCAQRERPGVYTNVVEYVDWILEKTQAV
Sequence of FXIa (P03951 19-387 partner limits assumed): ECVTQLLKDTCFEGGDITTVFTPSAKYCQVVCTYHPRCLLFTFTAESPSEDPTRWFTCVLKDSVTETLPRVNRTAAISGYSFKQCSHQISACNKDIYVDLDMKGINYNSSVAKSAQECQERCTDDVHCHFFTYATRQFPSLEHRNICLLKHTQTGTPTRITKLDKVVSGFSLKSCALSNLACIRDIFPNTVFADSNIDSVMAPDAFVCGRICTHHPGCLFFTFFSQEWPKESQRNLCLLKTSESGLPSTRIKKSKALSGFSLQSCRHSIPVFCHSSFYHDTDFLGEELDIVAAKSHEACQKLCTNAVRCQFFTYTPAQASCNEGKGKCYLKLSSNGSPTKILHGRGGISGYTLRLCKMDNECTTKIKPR
Summary of the method: as §1

plasma kallikrein (PKa) [2] = target: T1, plasma kallikrein (PKa); experiment: PKa inhibition in kaolin-activated human platelet-poor plasma (PPP); type: biochemical; settings: Pro-Phe-Arg-AMC substrate, fluorescence signal
Method: Test Example 2. Evaluation of the compounds of the present invention in terms of PKa Inhibition in Kaolin-Activated Human PPP: Platelet-poor plasma (PPP) obtained from human whole blood, anticoagulated with Na - Citrate, was incubated with various concentrations of the test compounds and 25, 75, 250, or 750 µg/mL kaolin in assay buffer for 20 minutes at 37°C, so that a concentration response of the test compounds was obtained with respect to various kaolin concentrations. The positive drug was diluted in accordance with the reference concentration and diluted 3-fold with the diluent as the first point.
50 nL of compounds were then transferred to a 384 assay plate containing 2 replicates per well. The 384 assay plate was centrifuged at 1000 rpm/min. 2.5 µL of human plasma working solution was added to each assay well. The 384 assay plate was centrifuged at 1000 RPM. 2.5 µL of kaolin working solution was added to each assay well. The 384 assay plate was centrifuged at 1000 RPM and incubated at 25°C for 20 minutes. 5 µL of Pro-Phe-Arg-AMC working solution was added to each assay well. The 384 assay plate was centrifuged at 1000 RPM and incubated at 25°C for 60 minutes. BMG reads the fluorescence signal.
The percent inhibition of the compound was calculated according to the following formula: [formula]

[3] = plasma kallikrein enzyme assay, read-out: PKa IC50

T1 sequence (P03952 391-638 limits assumed): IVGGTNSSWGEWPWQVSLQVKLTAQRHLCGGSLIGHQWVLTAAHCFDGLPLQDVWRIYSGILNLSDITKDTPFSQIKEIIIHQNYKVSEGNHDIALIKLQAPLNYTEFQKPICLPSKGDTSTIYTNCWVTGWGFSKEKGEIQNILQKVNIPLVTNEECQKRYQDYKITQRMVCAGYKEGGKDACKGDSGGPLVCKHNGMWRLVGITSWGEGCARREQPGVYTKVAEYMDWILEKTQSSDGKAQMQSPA
T1 sequence (P03952 20-390 partner limits assumed): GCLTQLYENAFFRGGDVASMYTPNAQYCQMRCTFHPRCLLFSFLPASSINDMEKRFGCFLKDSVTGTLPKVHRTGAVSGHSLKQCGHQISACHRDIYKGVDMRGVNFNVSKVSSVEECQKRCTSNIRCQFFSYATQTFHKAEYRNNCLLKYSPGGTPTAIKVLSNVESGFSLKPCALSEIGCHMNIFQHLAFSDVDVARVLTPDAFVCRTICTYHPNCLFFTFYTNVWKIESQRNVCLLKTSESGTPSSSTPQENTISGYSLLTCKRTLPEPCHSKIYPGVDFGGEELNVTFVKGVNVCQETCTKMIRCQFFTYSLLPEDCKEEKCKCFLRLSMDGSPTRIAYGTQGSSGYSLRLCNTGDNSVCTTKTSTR

Row | pIC50 (plasma kallikrein (PKa) [1]; [3]) | IC50 (KLK1; values given in µM) [µM] | IC50 (FXIa; values given in µM) [µM] | pIC50 (plasma kallikrein (PKa) [2]) | IC50 (KLK1; values in nM) [µM] | IC50 (FXIa; values in nM) [µM] | SMILES | pIC50 (plasma kallikrein (PKa) [1]; PKa IC50, plasma kallikrein enzyme assay)
1 | 9.39 | > 10 | > 10 | 8.10 | – | – | Cc1cc(N)nc(C)c1CNC(=O)c1cnc(Cc2cn3cc(C4CC4)ccc3n2)o1 [Compound 18] | –
2 | 10.52 | – | – | 8.22 | > 0.5 | > 0.5 | Cc1cc(N)nc(C)c1CNC(=O)c1ncn(Cc2ccc(Cn3ccccc3=O)cc2)n1 [Compound 11, N-((6-amino-2,4-dimethylpyridin-3-yl)methyl)-1-(4-((2-oxopyridin-1(2H)-yl)methyl)benzyl)-1H-1,2,4-triazole-3-carboxamide] | –
3 | 9.20 | > 10 | > 10 | 7.63 | – | – | Cc1cc(N)nc(C)c1CNC(=O)c1coc(Cc2cn3cc(C4CC4)ccc3n2)n1 [Compound 19] | –
4 | 9.46 | > 10 | > 10 | 8.08 | – | – | N=C(N)c1ccc(CNC(=O)c2cnn(Cc3ccc(CC4CC4)cc3)c2C(F)(F)F)cc1 [Compound 109] | –
5 | > 10.30 | > 10 | > 10 | 7.13 | – | – | COCc1nn(Cc2cn3cc(C4CC4)ccc3n2)cc1C(=O)NCc1ccc(C(=N)N)cc1 [Compound 39] | –
6 | 8.66 | > 10 | > 10 | 7.25 | – | – | N#Cc1cccc([C@@H](NCC2CC2)c2ccc(F)c(NC(=O)c3cc(C(F)(F)F)nn3-c3cccc(CN)c3)c2)c1 [Berotralstat, reference compound] | –
7 | 9.02 | > 10 | > 10 | 7.90 | – | – | Nc1nccc2cc(CNC(=O)c3ncn(Cc4ccc(Cn5ccccc5=O)cc4)n3)ccc12 [Compound 76] | –
8 | > 10.30 | > 10 | > 10 | 8.10 | – | – | Cc1cc(N)nc(C)c1CNC(=O)c1ncn(Cc2ccc(Cn3cc(F)ccc3=O)cc2)n1 [Compound 23] | –
9 | 8.64 | > 10 | > 10 | 7.39 | – | – | N=C(N)c1ccc(CNC(=O)c2cnn(Cc3ccc(CC4CC4)cc3)c2)cn1 [Compound 242] | –
10 | 9.67 | – | – | 8.12 | > 0.5 | > 0.5 | COCc1nn(Cc2ccc(Cn3cccn3)cc2)cc1C(=O)NCc1c(C)cc(N)nc1C [Compound 14, 1-(4-((1H-pyrazol-1-yl)methyl)benzyl)-N-((6-amino-2,4-dimethylpyridin-3-yl)methyl)-3-(methoxymethyl)-1H-pyrazol-4-carboxamide] | –
11 | 9.80 | > 10 | > 10 | 7.83 | – | – | Nc1noc2ccc(CNC(=O)c3cnn(Cc4ccc(Cn5ccccc5=O)cc4)c3)cc12 [Compound 214] | –
12 | 10.10 | > 10 | > 10 | 7.71 | – | – | COCc1nn(Cc2ccc(Cn3ccccc3=O)cc2)cc1C(=O)NCc1ccc(C(=N)N)cc1F [Compound 241] | –

Row | SMILES | pIC50 (plasma kallikrein (PKa) [1]; [3]) | IC50 (KLK1; values given in µM) [µM] | IC50 (FXIa; values given in µM) [µM] | pIC50 (plasma kallikrein (PKa) [2]) | IC50 (KLK1; values in nM) [µM] | IC50 (FXIa; values in nM) [µM] | pIC50 (plasma kallikrein (PKa) [1]; PKa IC50, plasma kallikrein enzyme assay)
13 | N=C(N)c1ccc(CNC(=O)c2cnn(Cc3ccc(Oc4ccccc4)cc3)c2)cc1 [Compound 128] | – | > 10 | > 10 | 7.88 | – | – | 9.25
